The nature of data set [1]: Population PK model, intravenous administration in healthy rats. Type of data set: in vivo, Wistar rats. Particulars: i.v., 2-compartment model, linear elimination, combined error. How it is done: (§1) Population pharmacokinetic analysis was performed using Monolix® Suite 2019R1 software (Lixoft®, Antony, France). Structural models evaluated included 1- and 2-compartment models, first-order absorption, and linear elimination. Different error models were analyzed to explain the variability of the residual error, including a constant, proportional, and combined error model. […] The models were parameterized in V, ka, ke, and distribution constants (k1-2 and k2-1). The parameters were estimated with a stochastic approximation. The object function value (OFV), represented as −2 times the log-likelihood (−2LL) and Akaike Information Criterion (AIC), was used to compare the models.
(§2) The base model for i.v. and oral administration has been established. For oral linalool, after establishing the base model, new models adding the categorical covariates investigated in the study (complexed linalool administered in healthy rats and complexed linalool administered in SHRs) were developed. The visual analysis of the graphs and statistical tests (Pearson’s correlation and ANOVA) were carried out to verify if there is any relationship between the random effects of the parameters (h) and the covariables that could contribute to improving the model.
(§3) The graphs that correlate the plasma concentrations with the predicted individual or population plasma concentrations were evaluated by individual waste distribution charts (IWRES). Also, to evaluate whether simulations performed from the developed model are capable of reproducing the median and the variability of the observed data, a graph was generated to verify the predicted data visual predictive check (VPC).

Data set [2] is described as follows: Population PK model with covariates, oral administration data. Type of data set: in vivo, Wistar rats and SHR. How it is done: as §1, §2, §3
Data set [3] deals with spontaneously hypertensive rats (SHR). Nature of the data set: Acute intravenous effects on blood pressure and heart rate. Type of data set: in vivo, rat. Particulars: i.v. 50 mg/kg, n = 5, mean ± S.E.M. From the text:
This protocol aimed to evaluate the acute hemodynamic effects of LIN, administered intravenously (i.v.), on blood pressure (BP) and heart rate (HR) in spontaneously hypertensive rats (SHR) and normotensive Wistar rats. Animals were anesthetized with ketamine and xylazine (Cristália), and following trichotomy of the iliac region, polyethylene (PE) catheters were implanted into the femoral artery and vein.
The catheters consisted of PE-10 segments (internal/external diameter: 0.28/0.61 mm) connected to PE-50 catheter (internal/external diameter: 0.58/0.96 mm). To prevent catheter blockage during the hemodynamic recordings, the arterial and venous catheters were implanted pre-filled with a sterile saline–heparin solution (heparin: 100 UI). […]
Following a 24 h recovery period, baseline physiological parameters, including systolic BP (SBP), diastolic BP (DBP), and heart rate, were recorded. BP was continuously monitored via the arterial catheter connected to a pressure transducer (ADInstruments, São Paulo, Brazil). The signal was amplified and digitized at 1 kHz using a PowerLab 8/35 data acquisition system and analyzed with LabChart 8 Pro software (ADInstruments, São Paulo, Brazil). Once cardiovascular parameters stabilized, SBP, DBP, and HR were recorded as baseline control values. […]

The test system is the same in data set [4]. The data set is described as follows: Chronic 60-day oral treatment: blood pressure and heart rate by tail-cuff plethysmography. Type of data set: in vivo, rat. Particulars: 50 mg/kg/day p.o., 60 days, vs SHR vehicle. As for the experimental part: Before starting any treatment, animals were conditioned for one week to minimize stress-related variability in BP and HR measurements. SHRs were randomly assigned to three experimental groups: Group 1 (SHR + Vehicle): Received saline solution (0.1 mL/100 g, p.o.); Group 2 (SHR + LIN): Treated with (-)-linalool (50 mg/kg/day, p.o.); and Group 3 (SHR + LIN/β-CD): Treated with the LIN/β-cyclodextrin inclusion complex (50 mg/kg/day, p.o.). An additional control group of normotensive Wistar rats (Group 4: Wistar + Vehicle) received saline under the same dosing protocol to serve as a baseline.
All treatments were administered orally once daily (between 08:00 and 12:00 h) for a period of 60 days, and cardiovascular assessments were performed with all groups in the afternoon (between 12:00 and 18:00 h), approximately 60 min post-administration. BP and heart rate were measured every five days throughout the treatment period using the tail-cuff plethysmography method (Insight® V2.11, São Paulo, Brazil). Systolic and diastolic blood pressures were measured in triplicate for each animal, and the average of these values was used for data analysis and graphical representation.

On the set-up of data set [5]: method as in PMID 16596022. Particulars: cited from earlier work.
Where [6] appears, read: 2-compartment model, first-order absorption, covariates Complex and Complex SHR in V and k12.

The values that follow come from paper PMC12844744, “Complexed Linalool with Beta-Cyclodextrin Improve Antihypertensive Activity: Pharmacokinetic and Pharmacodynamic Insights” (Pharmaceuticals, 2025).

Each structure is given as a SMILES string.

As for `C=CC(C)(O)CCC=C(C)C` (stereo not shown) [LIN, 3,7-dimethyl-1,6-octadien-3-ol], the Vd in data set [1] (Wistar, rat, plasma, iv, 50 mg/kg, read-out: V, volume of distribution (population estimate)) was 22.4 L. For the same molecule, in data set [1] (Wistar, rat, plasma, iv, 50 mg/kg, read-out: ke, first-order elimination rate (population estimate) (converted)), the k el is 0.000101 s⁻¹. In data set [1], the “k12, distribution constant (population estimate)” value was 0.461 h⁻¹ and the “k21, distribution constant (population estimate)” value was 1.05 h⁻¹. Moreover, in data set [2] (setting [6]), the “V, volume of distribution (population estimate)” value is 15.28 L; the “k21, distribution microconstant (population estimate)” value is 0.0711 h⁻¹; the “ka, absorption rate constant (population estimate)” value is 0.226 h⁻¹. For the same molecule, in data set [2] (Wistar and SHR, rat, plasma, 2-compartment model, first-order absorption, covariates Complex and Complex SHR in V and k12, read-out: ke, first-order rate elimination (population estimate) (converted)), the k el was 4.53e-05 s⁻¹. Besides, the “V (typical population parameter, as given in text)” value in data set [2] (final model with covariates) was found to be 15.28 L/kg. Besides, in data set [3], the “%HR, percent change in heart rate relative to baseline” value is reported as −54.54 ± 4.84% and the “%MAP, percent change in mean arterial pressure relative to baseline” value was −56.64 ± 5.05%. Further, the “Effect on arterial pressure, chronic treatment” value in data set [4] is reported as “significantly reduced arterial pressure”. Besides, in data set [5], the LogP is on record as ~ 3.3.
